Source: patent US20190211002A1, “NOVEL TRIAZOLE DERIVATIVES” (Bayer CropScience Aktiengesellschaft, priority 2016, published 2019)

Columns and labels:
[1] = LogP by HPLC on reversed phase columns (EEC directive 79/831 Annex V.A8); format: physicochemical; conditions: method [a]: LC-UV, acidic range, 0.1% formic acid in water and acetonitrile as eluent; for chromatographic logP: reversed phase HPLC column
Experimental: Measurement of LogP values was performed according to EEC directive 79/831 Annex V.A8 by HPLC (High Performance Liquid Chromatography) on reversed phase columns with the following methods: • ^[a] […] Lambda-max-values were determined using UV-spectra from 200 nm to 400 nm and the peak values of the chromatographic signals.

[2] = system: Puccinia recondita; assay: Example A: in vivo preventive test on Puccinia recondita (brown rust on wheat); conditions: 264 h, 500 ppm of active ingredient, preventive spray, evaluated 11 days after inoculation, read-out: efficacy
Experimental: (§1) The test is evaluated 11 days after the inoculation.

[3] = system: Sphaerotheca fuliginea; assay: Example C: in vivo preventive test on Sphaerotheca fuliginea (powdery mildew on cucurbits); conditions: Podosphaera fuliginea, 360 h; 500 ppm of active ingredient; gherkin; preventive spray; evaluated 15 days after inoculation; read-out: efficacy
Experimental: The test is evaluated 15 days after the inoculation.

[4] = system: Uromyces appendiculatus; assay: Example D: in vivo preventive test on Uromyces appendiculatus (bean rust); conditions: 264 h, 500 ppm of active ingredient, preventive spray, evaluated 11 days after inoculation, read-out: efficacy
Experimental: as §1

[5] = system: Blumeria graminis f sp. hordei; assay: Example E: in vivo preventive Blumeria test (barley); conditions: 168 h, 500 ppm of active ingredient, preventive spray, evaluated 7 days after inoculation, read-out: efficacy
Experimental: • Solvent: 49 parts by weight of N,N-dimethylacetamide • Emulsifier: 1 part by weight of alkylaryl polyglycol ether To produce a suitable preparation of active compound, 1 part by weight of active compound or active compound combination was mixed with the stated amounts of solvent and emulsifier, and the concentrate was diluted with water to the desired concentration. To test for preventive activity, young plants were sprayed with the preparation of active compound or active compound combination at the stated rate of application. After the spray coating had been dried, the plants were dusted with spores of Blumeria graminis f sp. hordei. The plants were placed in the greenhouse at a temperature of approximately 18° C. and a relative atmospheric humidity of approximately 80% to promote the development of mildew pustules. The test was evaluated 7 days after the inoculation.

[6] = system: Septoria tritici; assay: Example G: in vivo 5 days preventive Septoria tritici test (wheat), comparison vs. WO-A 2010/146116; conditions: inoculated 5 days after spraying, evaluated 21 days after inoculation
Experimental: • Solvent: 49 parts by weight of N,N-dimethylacetamide • Emulsifier: 1 part by weight of alkylaryl polyglycol ether To produce a suitable preparation of active compound, 1 part by weight of active compound or active compound combination is mixed with the stated amounts of solvent and emulsifier, and the concentrate is diluted with water to the desired concentration. To test for preventive and long-lasting activity, young plants are sprayed with a preparation of active compound or active compound combination at the stated rate of application. After the spray coating has been dried, the plants are placed in the greenhouse at a temperature of approximately 15° C. and a relative atmospheric humidity of approximately 80%. 5 days later the plants are sprayed with a spore suspension of Septoria tritici. The plants remain for 48 hours in an incubation cabinet at approximately 20° C. and a relative atmospheric humidity of approximately 100% and afterwards for 60 hours at approximately 15° C. in a translucent incubation cabinet at a relative atmospheric humidity of approximately 100%. Then the plants are placed in the greenhouse at a temperature of approximately 15° C. and a relative atmospheric humidity of approximately 80%. The test is evaluated 21 days after the inoculation.

[7] = system: Sphaerotheca fuliginea; assay: Example H: in vivo preventive test on Sphaerotheca (cucumbers), comparison vs. WO-A 2010/146116; conditions: evaluated 7 days after inoculation
Experimental: To produce a suitable preparation of active compound, 1 part by weight of active compound is mixed with the stated amounts of solvent and emulsifier, and the concentrate is diluted with water to the desired concentration. To test for preventive activity, young plants are sprayed with the preparation of active compound at the stated rate of application. After the spray coating has dried on, the plants are inoculated with an aqueous spore suspension of Sphaerotheca fuliginea. The plants are then placed in a greenhouse at approximately 23° C. and a relative atmospheric humidity of approximately 70%. The test is evaluated 7 days after the inoculation.

[8] = system: Sphaerotheca fuliginea; assay: Example F: in vivo preventive test on Sphaerotheca (cucumbers), comparison vs. known phenoxy-phenyl compounds; conditions: rate of application 10 ppm, evaluated 7 days after inoculation
Experimental: • Solvent: 24.5 parts by weight of acetone • 24.5 parts by weight of dimethylacetamide • Emulsifier: 1 part by weight of alkylaryl polyglycol ether
To produce a suitable preparation of active compound, 1 part by weight of active compound is mixed with the above stated amounts of solvent and emulsifier, and the concentrate is diluted with water to the desired concentration.
To test for preventive activity, young plants are sprayed with the preparation of active compound at the stated rate of application. After the spray coating has dried on, the plants are inoculated with an aqueous spore suspension of Sphaerotheca fuliginea. The plants are then placed in a greenhouse at approximately 23° C. and a relative atmospheric humidity of approximately 70%.
The test is evaluated 7 days after the inoculation.

Row | Compound | chromatographic logP [1] | pest or weed control at 500 ppm [2] [%] | pest or weed control at 500 ppm [3] [%] | pest or weed control at 500 ppm [4] [%] | pest or weed control at 500 ppm [5] [%] | Efficacy in % ([6]; rate of application 100 ppm) [%] | Efficacy in % ([6]; rate of application 500 ppm) [%] | Efficacy in % ([7]; rate of application 10 ppm) [%] | Efficacy in % ([7]; rate of application 100 ppm) [%] | LogP [1] | Efficacy in % [8] [%]
1 | FC(F)(F)c1ccc(Oc2ccc(C3(Cn4cncn4)OCCO3)c(C(F)(F)F)n2)cc1 [I.14, 3-[2-(1,2,4-triazol-1-ylmethyl)-1,3-dioxolan-2-yl]-2-(trifluoromethyl)-6-[4-(trifluoromethyl)phenoxy]pyridine] | 3.29 | 90 to 100 | 90 to 100 | 90 to 100 | 90 to 100 | 100 | 100 | 75 | 100 | – | –
2 | CC1COC(Cn2cncn2)(c2ccc(Oc3ccc(Br)cc3)nc2C(F)(F)F)O1 (centres unmarked) [I.16, 6-(4-bromophenoxy)-3-[4-methyl-2-(1,2,4-triazol-1-ylmethyl)-1,3-dioxolan-2-yl]-2-(trifluoromethyl)pyridine] | 3.59 | 90 to 100 | 90 to 100 | 90 to 100 | 90 to 100 | – | – | – | – | 3.55 | –
3 | FC(F)(F)c1nc(Oc2ccc(S(F)(F)(F)(F)F)cc2)ccc1C1(Cn2cncn2)OCCO1 [I.11] | 3.54 | 90 to 100 | 90 to 100 | 90 to 100 | 70 to 79 | 71 | 100 | – | – | – | –
4 | CC(O)(Cn1cncn1)c1ccc(Oc2ccc(Cl)cc2)cc1C(F)(F)F (centres unmarked) [reference compound] | – | – | – | – | – | – | – | – | – | – | 30
5 | FC(F)(F)c1ccc(Oc2ccc(C3(Cn4nc[nH]c4=S)OCCO3)c(C(F)(F)F)n2)cc1 [I-S.01, 2-[[2-[2-(trifluoromethyl)-6-[4-(trifluoromethyl)phenoxy]-3-pyridyl]-1,3-dioxolan-2-yl]methyl]-4H-1,2,4-triazole-3-thione] | 3.18 | 90 to 100 | 90 to 100 | 90 to 100 | 90 to 100 | – | – | – | – | – | –
6 | FC(F)(F)c1nc(Oc2ccc(Cl)cc2)ccc1C1(Cn2nc[nH]c2=S)OCCO1 [I-S.02, 2-[[2-[6-(4-chlorophenoxy)-2-(trifluoromethyl)-3-pyridyl]-1,3-dioxolan-2-yl]methyl]-4H-1,2,4-triazole-3-thione] | 3.06 | 90 to 100 | 90 to 100 | 90 to 100 | 90 to 100 | – | – | – | – | – | –
7 | Clc1ccc(Oc2cc(Cl)c(C3(Cn4cncn4)OCCO3)cn2)cc1 [drawing 80, reference compound] | – | – | – | – | – | 50 | 80 | – | – | – | –
8 | FC(F)(F)c1nc(Oc2ccc(Br)cc2)ccc1C1(Cn2cncn2)OCCO1 [I.02] | 3.35 | 90 to 100 | 90 to 100 | 90 to 100 | 90 to 100 | 93 | 100 | – | – | – | –
9 | FC(F)(F)c1nc(Oc2ccc(Cl)cc2)ccc1C1(Cn2cncn2)OCCO1 [I.04, 6-(4-chlorophenoxy)-3-[2-(1,2,4-triazol-1-ylmethyl)-1,3-dioxolan-2-yl]-2-(trifluoromethyl)-pyridine] | 3.25 | 90 to 100 | 90 to 100 | 90 to 100 | 90 to 100 | 86 | 100 | 73 | 100 | – | 73
10 | CCC1COC(Cn2cncn2)(c2ccc(Oc3ccc(C(F)(F)F)cc3)nc2C(F)(F)F)O1 (centres unmarked) [I.07, 3-[4-ethyl-2-(1,2,4-triazol-1-ylmethyl)-1,3-dioxolan-2-yl]-2-(trifluoromethyl)-6-[4-(trifluoromethyl)phenoxy]pyridine] | 3.96 | 90 to 100 | 90 to 100 | 90 to 100 | 90 to 100 | – | – | – | – | – | –
11 | Clc1ccc(Oc2cc(Cl)c(C3(Cn4cncn4)OCCO3)cn2)cc1 [drawing 85, reference compound] | – | – | – | – | – | – | – | 14 | 100 | – | –
